# Experimental data published in ChEMBL document CHEMBL1201862, “PubChem BioAssay data set” (2004).
# Active and inactive are the calls of the source.
# Legend:
# [1] = loss of viability in HepG2 cells – cell-based, CellTiter-Glo, cherry-picked, cytotoxicity control for Shn3 inhibitor project, dose response (AID 624134); assay type: functional
# [2] = molecular target: T1, Short transient receptor potential channel 4 (Mus musculus, UniProt Q9QUQ5); test: calcium entry via TRPC4 opening agents – cell-based, HEK293 TRPC4/mu-opioid, Fluo-4 calcium, dose response (AID 434937); assay type: functional
# T1 sequence (Q9QUQ5 whole entry): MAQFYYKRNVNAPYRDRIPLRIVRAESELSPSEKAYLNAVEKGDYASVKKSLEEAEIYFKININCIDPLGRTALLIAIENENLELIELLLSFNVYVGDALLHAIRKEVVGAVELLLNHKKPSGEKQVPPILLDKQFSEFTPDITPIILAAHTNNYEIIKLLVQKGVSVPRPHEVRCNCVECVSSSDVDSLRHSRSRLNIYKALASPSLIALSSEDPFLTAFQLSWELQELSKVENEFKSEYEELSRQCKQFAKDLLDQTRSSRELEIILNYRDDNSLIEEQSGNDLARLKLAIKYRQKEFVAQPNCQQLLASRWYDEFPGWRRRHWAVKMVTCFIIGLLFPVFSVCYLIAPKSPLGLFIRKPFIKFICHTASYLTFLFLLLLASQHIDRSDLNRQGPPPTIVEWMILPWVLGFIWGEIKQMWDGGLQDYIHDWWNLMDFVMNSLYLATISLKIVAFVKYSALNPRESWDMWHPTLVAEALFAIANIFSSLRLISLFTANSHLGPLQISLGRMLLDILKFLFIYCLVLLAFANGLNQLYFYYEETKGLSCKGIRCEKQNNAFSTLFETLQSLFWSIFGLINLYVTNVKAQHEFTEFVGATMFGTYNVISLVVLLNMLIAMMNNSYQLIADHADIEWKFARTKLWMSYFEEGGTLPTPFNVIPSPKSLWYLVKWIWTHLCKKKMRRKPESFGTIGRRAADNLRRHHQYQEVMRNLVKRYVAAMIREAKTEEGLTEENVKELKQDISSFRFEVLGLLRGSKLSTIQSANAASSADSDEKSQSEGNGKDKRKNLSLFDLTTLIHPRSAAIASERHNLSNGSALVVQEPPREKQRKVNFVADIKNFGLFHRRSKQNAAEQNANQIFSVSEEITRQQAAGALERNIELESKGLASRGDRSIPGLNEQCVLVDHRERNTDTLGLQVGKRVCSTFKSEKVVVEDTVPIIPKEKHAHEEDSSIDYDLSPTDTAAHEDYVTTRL
# Protein Wnt-3a = Protein Wnt-3a (Mus musculus, UniProt P27467); test: antagonism of Wnt3a pathway luciferase reporter – Wnt-LIGHT cells, luminescence, selectivity assay for Gli-SUFU antagonist project, dose response (AID 651570); assay type: functional; conditions: read-out: IC50_Mean;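 further: Wnt-LIGHT reporter cells stimulated with conditioned medium from Wnt3a-producing cells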
# Chain of Protein Wnt-3a (P27467 whole entry): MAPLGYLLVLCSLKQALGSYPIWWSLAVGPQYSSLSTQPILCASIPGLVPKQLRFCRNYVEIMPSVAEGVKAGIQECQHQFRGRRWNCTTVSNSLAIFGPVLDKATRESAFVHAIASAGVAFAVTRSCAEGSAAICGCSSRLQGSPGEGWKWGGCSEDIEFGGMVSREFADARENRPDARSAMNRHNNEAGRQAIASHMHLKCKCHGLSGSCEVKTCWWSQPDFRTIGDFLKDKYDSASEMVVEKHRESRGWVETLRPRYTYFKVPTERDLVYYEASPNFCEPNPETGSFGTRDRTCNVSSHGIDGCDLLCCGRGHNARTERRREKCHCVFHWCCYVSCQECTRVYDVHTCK
# [3] = reduction of Shn3 3'UTR-driven luciferase in osteoblasts – cell-based, Clone20 osteoblasts, firefly luciferase, cherry-picked, dose response (AID 624132); assay type: functional;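 further: firefly luciferase luminescence from reporter carrying the Shn3 3'UTR in osteoblasts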
# INS1 = test: INS-1E survival protection against cytokine death – cell-based, luminescence, retest, dose response (AID 449756); assay type: functional; conditions: Rattus norvegicus, INS1;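 further: cell death triggered by IL-1 beta plus TNF-alpha plus IFN-gamma mixture; protective hits raise ATP signal compared with cytokine alone wells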
# [4] = non-specific 3'UTR reporter inhibition in Clone20-Shn3RL – cell-based, Renilla luciferase, cherry-picked, counter-screen for Shn3 inhibitor project, dose response (AID 624133); assay type: functional
# [5] = molecular target: T2, Corticotropin-releasing factor receptor 2/Corticotropin-releasing factor-binding protein (Homo sapiens, UniProt P24387+Q13324); test: activators of CRF receptor 2 with binding protein – uHTS hits, confirmation (AID 602473); assay type: functional; conditions: read-out: EC50_Mean
# T2 sequence (Q13324 whole entry): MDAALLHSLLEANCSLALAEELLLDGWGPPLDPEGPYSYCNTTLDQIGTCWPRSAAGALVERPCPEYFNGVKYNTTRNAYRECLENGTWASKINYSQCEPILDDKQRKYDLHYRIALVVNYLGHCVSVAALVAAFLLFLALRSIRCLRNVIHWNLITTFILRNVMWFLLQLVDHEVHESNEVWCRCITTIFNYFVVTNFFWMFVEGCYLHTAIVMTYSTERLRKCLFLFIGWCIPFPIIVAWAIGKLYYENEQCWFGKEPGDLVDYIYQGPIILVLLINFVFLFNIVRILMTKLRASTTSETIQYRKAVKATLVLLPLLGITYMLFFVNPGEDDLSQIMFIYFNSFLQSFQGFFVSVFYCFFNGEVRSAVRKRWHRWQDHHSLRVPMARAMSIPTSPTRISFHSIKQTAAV
# T2 sequence (P24387 whole entry): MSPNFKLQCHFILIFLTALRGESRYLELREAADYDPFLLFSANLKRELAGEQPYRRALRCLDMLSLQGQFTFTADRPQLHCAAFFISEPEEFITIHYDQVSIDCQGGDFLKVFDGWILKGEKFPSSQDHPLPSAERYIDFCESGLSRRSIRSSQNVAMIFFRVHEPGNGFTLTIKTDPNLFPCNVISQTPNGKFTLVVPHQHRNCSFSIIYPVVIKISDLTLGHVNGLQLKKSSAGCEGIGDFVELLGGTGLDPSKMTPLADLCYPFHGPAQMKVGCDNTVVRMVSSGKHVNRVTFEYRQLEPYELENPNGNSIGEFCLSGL
# [6] = molecular target: T2, Corticotropin-releasing factor receptor 2/Corticotropin-releasing factor-binding protein; test: Dose Response confirmation of uHTS hits for small molecule antagonists of the CRF-binding protein and CRF-R2 receptor complex.; assay type: functional; conditions: read-out: IC50_Mean
# [7] = blockers of CRF-binding protein–CRF-R2 complex – cell-based, uHTS hits, 384-well, dose response (AID 651639); assay type: functional, Homo sapiens; conditions: read-out: IC50_Mean
# [8] = molecular target: Hepatocyte nuclear factor 4-alpha (Homo sapiens, UniProt P41235); assay type: functional, cell-based;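 further: biochemical luminescence-based dose-response counterscreen measuring inhibition of HNF4 dimerization, run alongside a screen for blockers of ABHD5–perilipin-5 interaction; split luciferase complementation of HNF4 fusion proteins in cell lysate measuring dimerization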
# Chain of Hepatocyte nuclear factor 4-alpha (P41235 whole entry, the tested form may be a part): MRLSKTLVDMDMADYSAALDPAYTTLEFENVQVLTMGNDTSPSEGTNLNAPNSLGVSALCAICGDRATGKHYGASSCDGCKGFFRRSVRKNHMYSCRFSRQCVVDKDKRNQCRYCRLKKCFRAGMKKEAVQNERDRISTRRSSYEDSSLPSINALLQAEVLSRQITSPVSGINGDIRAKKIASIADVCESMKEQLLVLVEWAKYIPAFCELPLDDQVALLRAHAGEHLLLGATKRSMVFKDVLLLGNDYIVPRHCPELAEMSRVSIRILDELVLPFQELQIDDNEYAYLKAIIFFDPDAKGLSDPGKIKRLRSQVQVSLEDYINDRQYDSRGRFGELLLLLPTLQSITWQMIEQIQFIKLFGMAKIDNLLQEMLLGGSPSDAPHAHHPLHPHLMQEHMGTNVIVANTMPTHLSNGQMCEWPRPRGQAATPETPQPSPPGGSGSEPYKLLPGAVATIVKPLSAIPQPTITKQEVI
# [9] = molecular target: T3, Heat shock factor protein 1 (Mus musculus, UniProt P38532); test: enhancement of HSF1-driven luciferase signal – cell-based, NIH3T3, luminescence, dose retest, confirmation (AID 435004); assay type: functional;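 further: stress induced by proteasome inhibitor MG132 added 30 min after compound; luciferase reporter driven by HSF1 response element in NIH3T3 cells; actives raise luminescence as potentiators of the MG132 stress response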
# T3 sequence (P38532 whole entry): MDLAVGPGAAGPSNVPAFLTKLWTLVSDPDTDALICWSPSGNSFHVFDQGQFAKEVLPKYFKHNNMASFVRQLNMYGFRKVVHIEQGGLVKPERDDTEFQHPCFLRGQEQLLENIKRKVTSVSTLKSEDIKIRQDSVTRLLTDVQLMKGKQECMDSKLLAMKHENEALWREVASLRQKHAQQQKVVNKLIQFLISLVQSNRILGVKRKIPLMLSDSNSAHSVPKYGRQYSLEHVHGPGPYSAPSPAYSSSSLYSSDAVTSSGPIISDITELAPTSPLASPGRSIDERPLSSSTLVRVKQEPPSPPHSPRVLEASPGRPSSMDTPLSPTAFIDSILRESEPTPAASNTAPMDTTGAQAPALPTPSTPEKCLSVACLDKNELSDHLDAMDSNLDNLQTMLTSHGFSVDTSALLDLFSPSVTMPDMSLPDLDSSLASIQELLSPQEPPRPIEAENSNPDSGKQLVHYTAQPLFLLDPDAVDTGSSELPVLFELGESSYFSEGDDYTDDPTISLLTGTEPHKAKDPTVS
# Cytochrome P450 2D6 = Cytochrome P450 2D6 (Homo sapiens, UniProt P10635);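 further: CYP2D6 member of a cytochrome P450 panel assay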
# Chain of Cytochrome P450 2D6 (P10635 whole entry): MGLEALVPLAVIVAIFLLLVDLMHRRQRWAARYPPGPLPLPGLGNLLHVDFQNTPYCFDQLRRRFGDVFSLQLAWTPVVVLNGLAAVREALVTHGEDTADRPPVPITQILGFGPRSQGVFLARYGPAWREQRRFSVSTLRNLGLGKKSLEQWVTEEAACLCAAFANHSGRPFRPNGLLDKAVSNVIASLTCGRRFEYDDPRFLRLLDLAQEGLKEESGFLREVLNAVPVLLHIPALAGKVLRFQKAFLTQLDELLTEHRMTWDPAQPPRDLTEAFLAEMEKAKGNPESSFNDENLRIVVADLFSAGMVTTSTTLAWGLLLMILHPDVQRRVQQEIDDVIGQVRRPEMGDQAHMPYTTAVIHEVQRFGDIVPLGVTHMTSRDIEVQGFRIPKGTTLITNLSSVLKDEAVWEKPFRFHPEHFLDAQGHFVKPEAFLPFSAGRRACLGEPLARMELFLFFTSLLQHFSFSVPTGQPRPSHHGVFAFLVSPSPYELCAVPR
# Protein RecA = molecular target: T4, Protein RecA (Mycobacterium tuberculosis, UniProt P9WHJ3); test: Fluorescence Cell-Free Homogeneous Dose Retest to Identify Inhibitors of RecA-Intein Splicing Activity. [Related pubchem assays (depositor defined):AID2097, AID2223, AID489010, AID492950]; assay type: functional
# T4 sequence (P9WHJ3 whole entry): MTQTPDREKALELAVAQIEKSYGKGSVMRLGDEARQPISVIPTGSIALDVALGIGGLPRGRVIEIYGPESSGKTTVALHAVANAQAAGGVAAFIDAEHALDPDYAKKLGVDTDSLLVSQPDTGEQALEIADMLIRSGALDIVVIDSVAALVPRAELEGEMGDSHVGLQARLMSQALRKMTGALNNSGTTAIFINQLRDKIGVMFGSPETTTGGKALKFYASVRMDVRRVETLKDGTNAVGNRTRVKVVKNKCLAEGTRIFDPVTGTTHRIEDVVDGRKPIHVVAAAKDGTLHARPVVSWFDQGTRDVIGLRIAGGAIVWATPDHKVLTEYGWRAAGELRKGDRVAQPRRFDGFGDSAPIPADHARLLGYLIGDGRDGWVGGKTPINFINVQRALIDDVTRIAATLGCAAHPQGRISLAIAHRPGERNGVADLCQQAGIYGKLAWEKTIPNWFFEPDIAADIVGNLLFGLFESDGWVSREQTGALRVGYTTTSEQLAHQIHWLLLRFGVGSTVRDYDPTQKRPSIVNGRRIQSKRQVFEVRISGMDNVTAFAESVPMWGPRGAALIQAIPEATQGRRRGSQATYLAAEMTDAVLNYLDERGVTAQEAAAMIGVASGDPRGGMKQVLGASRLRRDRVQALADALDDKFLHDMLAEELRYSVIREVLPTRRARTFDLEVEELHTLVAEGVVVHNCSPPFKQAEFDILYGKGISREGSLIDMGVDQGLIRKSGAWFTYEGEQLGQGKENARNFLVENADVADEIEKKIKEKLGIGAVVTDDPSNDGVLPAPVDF
# [10] = molecular target: T5, Replicative DNA helicase DnaB (Mycobacterium tuberculosis, UniProt P9WMR3); test: DnaB intein splicing inhibitors, dose response, biochemical, cell-free fluorescence (AID 449749); assay type: functional
# T5 sequence (P9WMR3 whole entry): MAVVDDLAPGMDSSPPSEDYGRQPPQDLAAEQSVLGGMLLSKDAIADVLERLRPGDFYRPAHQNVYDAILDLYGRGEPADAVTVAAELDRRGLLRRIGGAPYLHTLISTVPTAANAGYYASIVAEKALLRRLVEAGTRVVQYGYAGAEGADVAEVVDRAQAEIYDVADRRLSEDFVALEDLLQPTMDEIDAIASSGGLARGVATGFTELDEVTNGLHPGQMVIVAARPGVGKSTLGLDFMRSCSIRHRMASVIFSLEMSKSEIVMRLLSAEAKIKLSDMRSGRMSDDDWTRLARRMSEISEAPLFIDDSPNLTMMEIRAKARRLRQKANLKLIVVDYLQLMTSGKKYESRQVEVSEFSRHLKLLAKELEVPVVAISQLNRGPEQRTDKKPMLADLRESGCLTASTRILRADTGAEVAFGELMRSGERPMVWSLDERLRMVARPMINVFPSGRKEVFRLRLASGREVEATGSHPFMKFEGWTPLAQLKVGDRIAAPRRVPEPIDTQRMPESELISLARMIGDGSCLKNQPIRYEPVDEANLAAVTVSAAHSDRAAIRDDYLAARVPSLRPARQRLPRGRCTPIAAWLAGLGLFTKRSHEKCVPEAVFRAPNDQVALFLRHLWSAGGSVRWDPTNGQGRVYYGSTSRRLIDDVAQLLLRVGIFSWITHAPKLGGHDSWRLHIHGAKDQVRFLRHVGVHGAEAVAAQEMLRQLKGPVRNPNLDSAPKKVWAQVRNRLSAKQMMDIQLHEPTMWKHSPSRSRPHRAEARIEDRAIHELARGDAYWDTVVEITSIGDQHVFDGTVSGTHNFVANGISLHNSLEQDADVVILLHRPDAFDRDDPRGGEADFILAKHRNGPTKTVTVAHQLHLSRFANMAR
# [11] = Fluorescence-based cell-based high throughput dose response assay for inhibitors of the interaction of nucleotide-binding oligomerization domain containing 2 (NOD2) and the receptor-interacting serine-threonine kinase 2 (RIPK2).; assay type: functional; conditions: Homo sapiens
# [12] = molecular target: Photoreceptor-specific nuclear receptor (Homo sapiens, UniProt Q9Y5X4); assay type: functional, cell-based;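 further: CHO-S cells with Gal4-NCOR and VP16-NR2E3 two-hybrid luciferase reporter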
# Chain of Photoreceptor-specific nuclear receptor (Q9Y5X4 whole entry, the tested form may be a part): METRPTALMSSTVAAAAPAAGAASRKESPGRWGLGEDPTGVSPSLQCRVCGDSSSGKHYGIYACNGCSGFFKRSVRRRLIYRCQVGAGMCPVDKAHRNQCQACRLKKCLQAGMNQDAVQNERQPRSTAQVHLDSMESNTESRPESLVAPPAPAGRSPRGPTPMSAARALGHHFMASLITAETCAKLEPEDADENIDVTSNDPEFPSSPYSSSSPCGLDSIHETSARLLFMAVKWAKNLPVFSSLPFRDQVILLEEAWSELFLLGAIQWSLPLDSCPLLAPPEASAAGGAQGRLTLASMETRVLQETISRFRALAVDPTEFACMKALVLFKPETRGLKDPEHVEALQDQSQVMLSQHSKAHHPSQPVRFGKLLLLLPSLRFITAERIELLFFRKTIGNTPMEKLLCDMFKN
# T-cell = test: loss of vesicle association with mouse CD8+ T cells – mouse 2C CD8+ T cells, flow cytometry, dose response (AID 485284); assay type: functional
# cells [13] = assay type: functional, cell-based
# cells [14] = assay type: functional, cell-based; remark: listed apart in the source
smiles,measurement,setting,value
Cc1sc2ncnc(NCC(C)(C)N3CCOCC3)c2c1C,AC50,[1],4.09 µM (active)
same,EC50,[2],0.841 µM (active)
same,IC50,Protein Wnt-3a,0.942 µM (active)
same,AC50,[3],1.36 µM (active)
same,AC50,INS1,2.96 µM (active)
same,AC50,[4],3 µM (active)
CCOC(=O)c1c(-c2ccccc2)oc2ccc(OC(C)C(=O)O)cc12 (stereo not drawn),EC50,[5],> 53 µM (inactive)
same,IC50,[6],< 0.368 µM (active)
same,IC50,[7],0.34 µM (active)
O=C(NC1CCCCC1)C(c1cc2ccccc2o1)n1c(=O)c(-c2ccco2)nc2ccccc21 (stereo not drawn),IC50,[8],2.19 µM (active)
COc1cccc(CSc2nnc(C(F)(F)F)n2Cc2ccc(F)cc2)c1,EC50,[5],> 53 µM (inactive)
same,IC50,[6],7.2 µM (active)
same,EC50,[9],> 260 µM (inactive)
same,AC50,Cytochrome P450 2D6,10 µM (inconclusive)
same,IC50,[7],> 20 µM (inactive)
O=C(NCc1cccnc1)/C(=C\c1ccc(-c2ccc(Br)cc2)o1)S(=O)(=O)c1ccccc1,EC50,Protein RecA,20.2 µM (active)
same,AC50,[1],11.3 µM (active)
same,AC50,[10],> 380 µM (inconclusive)
same,AC50,[3],6.33 µM (active)
same,AC50,INS1,2.9 µM (active)
same,AC50,[4],13 µM (active)
same,IC50,[11],5.51 µM (active)
Cc1ccc(OCCOC(=O)c2cc(S(=O)(=O)N3CCCCC3)ccc2N2CCOCC2)cc1,IC50,[12],12.6 µM (inactive)
same,IC50,Protein Wnt-3a,4.83 µM (active)
same,EC50,T-cell,11.8 µM (active)
COc1ccccc1/C=C/C(=O)c1ccccc1,EC50,cells [13],> 350 µM (not active)
same,IC50,[8],7.12 µM (active)
same,EC50,cells [14],6.12 µM (active)
